Where two headings read alike, the source gives them in different places.
Experiments:
[1] = Quantitative autoradiography of 2-[14C]-FIAU in i.c. RG2TK+ and RG2 tumors; format: in vivo, rat; conditions: rat, iv, 50 uCi
Protocol: (§1) Two rats were prepared with i.c. RG2TK+ and RG2 tumors as described above. […] The brain was rapidly extracted and frozen in preparation for cryosectioning and quantitative autoradiography (QAR). [Blasberg, Seminars in Neurology] […] To convert the x-ray images to tissue radioactivity (nCi/g), the optical density of the standards was measured by computerized image analysis. A standard curve that relates mean optical density and tissue radioactivity was generated for each film. […]

RG2TK+ and RG2 tumors = experiment: as above; format: in vivo, rat; conditions: for Sensitivity* Δ(substrate % dose/g)/Δ(HSV1TK mRNA/S28 RNA IOD): autoradiographic data
Protocol: as §1

[2] = cited from earlier work
HSV1-TK = HSV1-TK (Human alphaherpesvirus 1 strain 17, UniProt P0DTH5); experiment: Single 120 minute paired accumulation of FIAU and IUdR by RG2TK+ and RG2 cells; format: cell-based, herpes simplex virus; conditions: Data from FIG. 6A
Protocol: The processing of cells and incubation medium was the same as that described above. A portion of the harvested cells was also processed for acid-insoluble (10% TCA) radioactivity. Decay corrected ^123 I-radioactivity was measured in a Packard AutoGamma 5550 Spectrometer. Samples were stored for 1 week to allow for ^123 I decay (12 half lives), and recounted afterwards in the Packard B1600 TriCarb beta spectrometer to determine ^3 H- and ^14 C-radioactivity.
All radioactivity measurements were expressed as a percent of administered dose per gram of tissue or per unit volume of fluid as described above.
Data analysis. […] These two related measures are useful to evaluate the intensity of the images (e.g., high "sensitivity") and the ability to differentiate between HSV1-TK and endogenous-TK in the images (e.g., high "selectivity"). The "selectivity" measure is not interpreted as a relative sensitivity (i.e., a value of 1 indicating equal sensitivity) of the substrate to HSV1-TK vs. endogenous-TK. […] They are intended for the direct comparison of substrates only.

HSV1-TK, sequence (P0DTH5 whole entry): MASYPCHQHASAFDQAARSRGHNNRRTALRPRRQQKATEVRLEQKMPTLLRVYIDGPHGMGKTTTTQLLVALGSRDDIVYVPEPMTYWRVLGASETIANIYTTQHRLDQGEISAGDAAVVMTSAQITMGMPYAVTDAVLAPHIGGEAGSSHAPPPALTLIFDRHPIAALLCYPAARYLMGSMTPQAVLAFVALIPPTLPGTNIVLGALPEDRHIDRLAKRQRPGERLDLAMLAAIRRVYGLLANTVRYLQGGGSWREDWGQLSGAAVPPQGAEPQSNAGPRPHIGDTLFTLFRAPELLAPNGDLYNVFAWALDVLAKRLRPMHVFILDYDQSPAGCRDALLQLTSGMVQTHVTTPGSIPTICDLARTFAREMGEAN

`O=c1[nH]c(=O)n([C@@H]2O[C@H](CO)[C@@H](O)[C@@H]2F)cc1I` [FIAU, 2'-fluoro-5-iodo-1-β-D-arabinofuranosyl-uracil] showed a tissue uptake at 24 h ([1]; brain, 24 h, level of detection on the autoradiograms, read-out: adjacent brain activity) of under 0.005 %ID/g, a tissue uptake at 24 h ([1]; i.c. rg2tk+ tumor, i.c. RG2TK+ tumor, 24 h, read-out: peak activity) of 0.43 %ID/g and a tissue uptake at 24 h ([1]; intracerebral tumor, i.c. RG2TK+ tumor, 24 h after 50 uCi 2-[14C]-FIAU i.v., read-out: mean activity) of 0.18 ± 0.14 %ID/g. For the same compound, the “difference in radioactivity localized to transduced compared to non-transduced tumor” value (RG2TK+ and RG2 tumors; 4 hours after tracer, RG2TK#16 vs RG2 i.c., non-rinsed autoradiogram) was “only a small difference”, the “Sensitivity* Δ(substrate % dose/g)/Δ(HSV1TK mRNA/S28 RNA IOD)” value (RG2TK+ and RG2 tumors; RG2TK#16/RG2 i.c. tumors) was 0.0058 and the “Sensitivity* Δ(substrate % dose/g)/Δ(HSV1TK mRNA/S28 RNA IOD)” value (RG2TK+ and RG2 tumors; RG2TK+/RG2 i.c. tumors) was 0.0039. The peak activity (RG2TK+ and RG2 tumors; i.c. RG2TK+ tumor, 24 h) was 0.43 % dose/g, the “organ damage in clinical trial” value ([2]; human, in vivo) was “severe liver and pancreatic damage” and the dose-limiting toxicity ([2]; pharmacologic doses) was “dose-limiting gastrointestinal, hematologic and neurotoxicity”. For the same compound, the “Sensitivity* Δ(substrate/TdR)/Δ(HSV1TK mRNA/S28 RNA IOD)” value (HSV1-TK) was 0.0105.

Reference: US5703056A, “Non-invasive imaging of gene transfer” (priority 1995, dated 1997)
